Two compounds from patent publication US12559471B2, “1,5-dihydro-2,4-benzodiazepine-3-one derivative and application thereof” (JIANGSU NHWA PHARMACEUTICAL CO., LTD, priority 2020, dated 2026) can be followed below.

Molecules are shown by their SMILES. “And” between values parts separate entries of the source, which are not always exact repeats. Equal values may be shown once.

The nature of series [1]: Investigation of sedation side effects (autonomic activity, movement distance). Conditions: mouse, in vivo, ip; C57BL/6j mice, intraperitoneal, 45 min after administration. Format: in vivo, mice. On the procedure:
(§1) 1.3 Investigation of Sedation Side Effects (Anti-Sedation Model)
(§2) According to different doses of each group, solutions at different concentrations were separately formulated for intraperitoneal injection, with the final administration volume of 10 mL/kg.
(§3) The movement at 0-20 min was recorded on video, and the movement distance in 20 min was analyzed by Top Scan 3.00 software. The inhibition rate of each group relative to the blank group after the administration were calculated, and the sedation effects of the compounds were comprehensively evaluated in combination with a statistical conclusion.

The test system of series [2] is MPTP+MK-801-induced Parkinson's disease mouse model. Kind of series: MPTP+MK-801-induced Parkinson's disease mouse model (anti-PDP efficacy model). The following applies: ip, mice, intraperitoneal, read-out: PDP efficacy (high activity) ED50. Format: in vivo. Here is the method: 1.1 Effect on MPTP+MK-801-induced Parkinson's disease mouse model (anti-PDP efficacy model)
Animals were injected with different doses of MPTP(1-methyl-4-phenyl-1,2,3,6-tetrahydropyridine) intraperitoneally every morning for 5 consecutive days. […] Then, after an interval of 0.25 h, the mice were placed into an autonomous activity test box (a black polyethylene box with the specification of 29 cm×29 cm×30 cm) for video recording for 20 min. Video analysis was performed after the video recording to evaluate the activity of the mice.

Series [3] deals with DOI-induced PPI impairment in rats. The experiment in a line: DOI-induced PPI impairment test in rats (intervention test). Format: in vivo. Conditions: DOI 0.5 mg/kg. On the procedure: 3. DOI ((f)-1-(2,5-dimethoxy-4-iodophenyl)-2-aminopropane hydrochloride or (f)-2,5-dimethoxy-4-iodoamphetamine hydrochloride) induced PPI impairment effect test in rats
30 min after the intragastric administration of a drug (or a vehicle) and 30 min after the subcutaneous injection of DOI at 0.5 mg/kg at the neck, namely 60 min after the intragastric administration, the rats were placed into a startle reflex test box for testing.
(§4) The test was performed according to literature and preliminary experiments, and the specific process was as follows: first an adaptation period of 5 min was given (62 dB background sound), and 5 separate startle reflex stimuli were given after the adaptation period (blockl, results not included in the analysis to reduce the initial response of the animals to a plateau level), followed by 4 different types of tests (block2) presented in a pseudo-random manner, namely: 1) startle reflex stimulus alone (pulse-alone, 120 dB, lasting 20 ms); 2) prepulse stimulus alone 13 dB above the background sound (prepulse-alone, 75 dB, lasting 20 ms); 3) prepulse stimulus in combination with startle reflex stimulus, each lasting 20 ms, with an interval of 100 ms; and 4) no stimulus in which only the background sound was given (no stimulus). Each trial was performed 5 times, with an average interval of 20 s (10-30 s) between trials.
The response amplitude of the startle reflex stimulus alone or the prepulse stimulus in combination with startle reflex stimulus was expressed as the AVG (instrument-specific unit) value, which indirectly reflects the size of the flinching response of the rat body. Evaluation index: PPI %=(1−response amplitude of prepulse stimulus in combination with startle reflex stimulus/response amplitude of startle reflex stimulus alone)×100. The higher the value is, the greater the degree of the inhibition is.

The subject of series [4] is DOI-induced head shaking behavior of mice. Kind of series: DOI-induced head shaking (head thrust) test in mice. The following applies: Mus musculus, intragastric, DOI 1 mg/kg i.p., 0-20 min, read-out: ED50 for inhibiting the DOI-induced head shaking behavior. Format: in vivo. Here is the method: 1. Head Thrust Test in Mice
Mice were stratified according to body weight and then randomly divided into a model control group, a blank control group and drug administration groups. 1 h after the intragastric administration of a vehicle or a drug, the animals were placed in a beaker (with the diameter of 13 cm and the height of 19 cm) paved with fresh padding, and were injected with a modeling drug DOI ((±)-1-(2,5-dimethoxy-4-iodophenyl)-2-aminopropane hydrochloride or (±)-2,5-dimethoxy-4-iodoamphetamine hydrochloride) intraperitoneally at a dose of 1 mg/kg. The head shaking times of the mice during the 0-20 min after the intraperitoneal injection of DOI were recorded. The head shaking behavior is defined as a rapid rotational twitching or wet dog-like shaking of the mouse head, which is distinguished from normal grooming or exploring behavior.

In series [5] the test system is MK-801-induced high activity behavior of mice. Kind of series: Dizocilpine (MK-801)-induced high activity test in mice. It counts as in vivo. Conditions: Mus musculus, 1 h, intragastric, MK-801 0.3 mg/kg i.p., 60 min, read-out: ED50 for inhibiting the MK-801-induced high activity behavior. On the procedure:
2. Dizocilpine (MK-801)-Induced High Activity Test in Mice 2.1 Test Method
Mice were stratified according to body weight and then randomly divided into a model control group, a blank control group and drug administration groups. After the administration of a test substance (or a control substance), the mice were placed into an autonomous activity test box (a black polyethylene box with the specification of 29 cm×29 cm×30 cm) for adaptation, and injected with MK-801 at 0.3 mg/kg intraperitoneally 1 h after the intragastric administration. The mice were then placed into the autonomous activity test box for video recording for 60 min. Video analysis was performed after the video recording to evaluate the activity of the mice.

In the next series the target is hERG potassium channel (Homo sapiens (Human), UniProt Q12809). The experiment in a line: In vitro hERG assay, whole-cell patch clamp in HEK-293 cells. Format: cell-based. Conditions: HEK-293 cells stably expressing hERG, room temperature. On the procedure:
b. […] The working solutions of the test compounds were ultrasonically treated for 20 min.
The cell suspension was gently pipetted to separate the aggregated cells.
Under an inverted microscope, recording electrodes were controlled by a glass electrode micromanipulator (micromanipulation) to contact with the cell. […] After forming the GΩ seal, a rapid capacitance compensation was given.
Negative control and test compounds flowed through the recording chamber in an ascending order of concentration by gravity perfusion to quickly act on the cells. During the recording, the extracellular fluid was continuously circulated by a vacuum pump. […] Each concentration was allowed to act for 5 min or until the current was stabilized. All experiments were performed at room temperature.
[formula] Basic statistics were calculated for each concentration, including mean, standard deviation (SD), standard error (SE), and replicates (n). The dose-dependent curve was fitted with the following equation and the half maximal inhibitory concentration (IC50) of the test compounds was calculated:
Curve fitting and calculation of IC50 were performed by GraphPad Prism 5.0 software. 5. Experimental Results

The target of another series is 5-HT2A receptor (Homo sapiens (Human), UniProt P28223). Kind of series: Competitive 5-HT2A receptor binding assay (3H-Ketanserin, CHO-5-HT2A membrane). Conditions: for Ki: CHO-5-HT2A membrane, 3H-Ketanserin, read-out: 5-HT2A (Ki value); for 2C/2A: ratio of 5-HT2C Ki to 5-HT2A Ki. On the procedure: 1) Preparation of CHO-5-HT2A Receptor Membrane
Chain of 5-HT2A receptor (P28223 whole entry): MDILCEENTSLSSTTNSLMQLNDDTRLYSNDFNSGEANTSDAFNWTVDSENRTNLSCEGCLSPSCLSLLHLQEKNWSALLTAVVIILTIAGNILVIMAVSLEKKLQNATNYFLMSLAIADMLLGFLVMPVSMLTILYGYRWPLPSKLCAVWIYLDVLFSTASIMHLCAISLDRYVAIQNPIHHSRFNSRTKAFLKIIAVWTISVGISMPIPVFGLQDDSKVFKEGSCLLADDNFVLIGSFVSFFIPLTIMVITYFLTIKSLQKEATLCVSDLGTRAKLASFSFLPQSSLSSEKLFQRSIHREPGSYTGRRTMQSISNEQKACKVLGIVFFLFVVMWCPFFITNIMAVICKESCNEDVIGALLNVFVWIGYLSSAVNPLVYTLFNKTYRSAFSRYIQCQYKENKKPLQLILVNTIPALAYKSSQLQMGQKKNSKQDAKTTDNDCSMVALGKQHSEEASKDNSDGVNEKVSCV
The precipitate was collected, and the supernatant was discarded. The solution B was added into the precipitate. […] The supernatant was carefully discarded, and the solution B was added into the precipitate again. […] The precipitate obtained was stored at −80° C.
1) Competitive 5-HT2A Receptor Binding Assay
Step 2: 100 μL of the membrane preparation was added into each reaction tube.
After the filtration, the filter membrane was dried at 60° C. and added into a scintillation disc attached with a bottom membrane, which was then added with 40 μL of scintillation liquid, sealed with a top membrane, and left to stand.

The target in the next series is 5-HT2C receptor (Rattus norvegicus (Rat), UniProt P08909). The following applies: read-out: 5-HT2C (Ki value); rat cortex membrane, 3H-Mesulergine.
Chain of 5-HT2C receptor (P08909 33-460): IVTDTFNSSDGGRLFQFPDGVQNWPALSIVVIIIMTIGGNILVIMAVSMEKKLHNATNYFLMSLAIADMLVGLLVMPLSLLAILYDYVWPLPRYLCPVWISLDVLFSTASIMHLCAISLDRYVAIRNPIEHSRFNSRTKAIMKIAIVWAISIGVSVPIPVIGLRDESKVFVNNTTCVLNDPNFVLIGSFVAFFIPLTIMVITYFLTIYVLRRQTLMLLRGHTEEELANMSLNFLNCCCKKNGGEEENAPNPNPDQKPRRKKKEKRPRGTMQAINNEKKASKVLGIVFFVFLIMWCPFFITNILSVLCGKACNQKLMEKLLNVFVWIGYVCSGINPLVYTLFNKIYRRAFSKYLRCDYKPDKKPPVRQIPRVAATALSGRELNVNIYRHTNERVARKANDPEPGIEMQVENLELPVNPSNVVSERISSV
The test system of another series is PPI in normal rats. Kind of series: PPI in normal rats (dosing test, normal saline instead of DOI). It counts as in vivo. Conditions: for PPI %, MEAN / PPI %, individual animal: normal saline. On the procedure:
as §4
The response amplitude of the startle reflex stimulus alone or the prepulse stimulus in combination with startle reflex stimulus was expressed as the AVG (instrument-specific unit) value, which indirectly reflects the size of the flinching response of the rat body. Evaluation index: PPI %=(1−response amplitude of prepulse stimulus in combination with startle reflex stimulus/response amplitude of startle reflex stimulus alone)×100. The higher the value is, the greater the degree of the inhibition is. Dosing Test:
The DOI at 0.5 mg/kg administered to animals in the above groups was changed to normal saline (NS), and other operations including administration and testing were the same as those in the intervention test.

In the next series the test system is C57BL/6j mice. Kind of series: Investigation of sedation side effects (autonomic activity, movement distance). Conditions: sedation ED50 / PDP efficacy ED50. It counts as in vivo. Here is the method:
as §1, §2, §3

Series [6] relates to MPTP+APO-induced climbing behavior in male mice. Kind of series: MPTP+APO-induced climbing behavior in male mice (DA motor deterioration model). Conditions: observation in words. Format: in vivo. Here is the method: 1.2 Effect on MPTP+APO-induced climbing behavior in male mice (DA motor deterioration model) Animals were injected with different doses of MPTP intraperitoneally every morning for 5 consecutive days. […] After the subcutaneous injection, animals were immediately placed into a climbing cage (self-made, a cylindrical cage with the diameter of 13 cm and the height of 15 cm, made of a stainless steel wire mesh with the diameter of about 0.1 cm, the bottom of which is a semitransparent polyethylene plate, and the cage cover of which is a stainless steel cage cover), and the behaviors of animals at minutes 10-11, 20-21 and 30-31 after the APO injection was observed and scored.
Scoring criteria: four feet on the floor scored 0; two forepaws on the cage scored 1; and four feet on the cage scored 2.

Chain of hERG potassium channel (Q12809 whole entry): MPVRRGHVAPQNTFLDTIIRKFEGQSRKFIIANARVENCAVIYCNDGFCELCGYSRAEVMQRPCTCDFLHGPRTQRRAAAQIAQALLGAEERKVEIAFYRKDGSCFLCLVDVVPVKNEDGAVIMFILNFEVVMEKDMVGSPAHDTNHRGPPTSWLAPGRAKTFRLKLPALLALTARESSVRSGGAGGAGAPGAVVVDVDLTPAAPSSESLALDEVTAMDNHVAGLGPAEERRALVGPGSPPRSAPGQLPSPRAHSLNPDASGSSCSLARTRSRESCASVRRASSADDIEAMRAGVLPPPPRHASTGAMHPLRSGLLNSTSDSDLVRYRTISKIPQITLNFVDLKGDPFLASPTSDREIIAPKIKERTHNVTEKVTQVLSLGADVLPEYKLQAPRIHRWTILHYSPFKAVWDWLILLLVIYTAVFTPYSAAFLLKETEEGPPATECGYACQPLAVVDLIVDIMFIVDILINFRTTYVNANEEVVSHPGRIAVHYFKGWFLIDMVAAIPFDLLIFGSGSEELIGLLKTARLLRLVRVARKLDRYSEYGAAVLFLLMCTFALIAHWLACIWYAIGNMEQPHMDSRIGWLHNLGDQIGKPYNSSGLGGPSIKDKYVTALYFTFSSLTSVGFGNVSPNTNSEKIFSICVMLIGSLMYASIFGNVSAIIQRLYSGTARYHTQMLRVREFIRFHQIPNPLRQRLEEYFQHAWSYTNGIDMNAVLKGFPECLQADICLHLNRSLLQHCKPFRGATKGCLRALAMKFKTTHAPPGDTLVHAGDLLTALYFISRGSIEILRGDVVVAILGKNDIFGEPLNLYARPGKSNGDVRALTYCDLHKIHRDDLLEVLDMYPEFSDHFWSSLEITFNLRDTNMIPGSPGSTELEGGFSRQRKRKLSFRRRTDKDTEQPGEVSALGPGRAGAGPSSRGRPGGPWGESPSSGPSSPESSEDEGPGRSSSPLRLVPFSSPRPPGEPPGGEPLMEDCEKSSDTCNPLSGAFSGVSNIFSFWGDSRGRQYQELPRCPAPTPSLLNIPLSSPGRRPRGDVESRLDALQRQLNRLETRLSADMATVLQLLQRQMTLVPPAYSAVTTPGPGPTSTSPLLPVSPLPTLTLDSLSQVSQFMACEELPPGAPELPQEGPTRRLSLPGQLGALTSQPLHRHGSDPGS
Method for 5-HT2C receptor: 2) Preparation of 5-HT2C Membrane
The rat cortex was taken out of a refrigerator at −80° C. and thawed spontaneously. The solution A was added, and the mixture was homogenized for 3-4 s at 4th gear for a total of 4 times and centrifuged at 50000 g for 25 min at 4° C. The supernatant was discarded, and the solution A was added into the precipitate. The mixture was mixed well using a vortex mixer and centrifuged at 50000 g for 25 min at 4° C. (repeated twice). The supernatant was discarded after the centrifugation, and the precipitate was stored at −80° C. for later use.
2) Competitive 5-HT2C Receptor Binding Assay
Step 1: the prepared membrane was suspended in the homogenate B to obtain a 210 mg/mL membrane suspension for later use.
Step 2: 100 μL of the membrane suspension was added into each reaction tube.
Step 3: 100 μL of the solution B was added into a total binding tube (TB), 100 μL of Ketanserin (final concentration: 1.0×10^−5 M) was added into a non-specific binding tube (NB), and 100 μL of test compound was added into each compound binding tube (CB).
Step 4: 10 μL of radioligand ^3H-Mesulergine was added into each reaction tube to reach a final concentration of 3 nM.
Step 5: each reaction tube was incubated at 37° C. for 25 min. After the reaction was completed, the binding ligands were rapidly filtered under reduced pressure, wherein the Whatman test paper GF/C was washed with 0.5% PEI solution 1 h in advance. The filter membrane was fully washed with cold Tris buffer solution, taken out and put into a 4 mL scintillation disc, which was then added with 1 mL toluene scintillation solution and shaken for mixing well.
Step 6: the scintillation disc was put into a liquid scintillation counter for counting.

Consider `CN1CCC(N2Cc3cc(F)ccc3CN(Cc3ccc(OC4CC4)cc3)C2=O)CC1` [NH-K-A19006, 8-fluoro-2-(1-methylpiperidin-4-yl)-4-[[4-(cyclopropoxy)phenyl]methyl]-1,5-dihydro-2,4-benzodiazepine-3-one], for which the ED50 at 45 min in [1] amounted to 11.9 mg/kg. Also, the values for the ED50 in series [2], in series [4] and in [5] were 0.31 mg/kg, 0.012 mg/kg and 0.265 mg/kg, respectively. For the same compound, in [3] (0.3 mg/kg, P<0.05), the “reversal of DOI-induced PPI impairment” value is listed as “significantly reverse”. The “PPI %, MEAN” value in series [3] (0.03 mg/kg intragastric) is reported as 33.01%; in series [3] (0.1 mg/kg intragastric), 43.48%; in [3] (0.3 mg/kg intragastric) it was 50.12%; with PPI in normal rats (0.03 mg/kg intragastric), 68.69%; in the series on PPI in normal rats (0.1 mg/kg intragastric), 70.23%; in the series with PPI in normal rats (0.3 mg/kg intragastric), 53.62%. For the same compound, the “PPI %, individual animal” value in series [3] (0.03 mg/kg intragastric) was 49.78% and 58.97% and 53.17% and 2.79% and 32.00% and 8.44% and 20.87% and 38.06%; in series [3] (0.1 mg/kg intragastric), 12.46% and 51.33% and 38.29% and 47.73% and 47.53% and 74.93% and 10.18% and 65.40%; in series [3] (0.3 mg/kg intragastric), 60.53% and 60.18% and 56.91% and 67.62% and 85.73% and 7.56% and 39.78% and 22.65%; with PPI in normal rats (0.03 mg/kg intragastric) it was 81.41% and 91.96% and 55.90% and 54.35% and 60.94% and 74.39% and 87.22% and 43.35%; in the series with PPI in normal rats (0.1 mg/kg intragastric) it was 60.40% (2×) and 81.41% and 77.50% and 71.96% and 69.71% and 50.53% and 89.95%; in the series with PPI in normal rats (0.3 mg/kg intragastric), 47.76% and 42.79% and 68.71% and 70.20% and 55.52% and 65.07% and 16.28% and 62.68%. Further, at hERG potassium channel, the IC50 was determined as 1190 nM. In addition, the Ki on 5-HT2A receptor turned out to be 0.277 nM; on 5-HT2C receptor it was 1.62 nM. For the same compound, the 2C/2A at 5-HT2A receptor came to 5.856. In addition, the “effect on PPI in normal rats” value in the series on PPI in normal rats (0.3 mg/kg) is recorded as “no significant effects were seen”.
`CC(C)COc1ccc(CN2Cc3cc(F)ccc3CN(C3CCN(C)CC3)C2=O)cc1` [NH-K-A19001, 7-fluoro-2-(1-methylpiperidin-4-yl)-4-[[4-(2-methylpropoxy)phenyl]methyl]-1,5-dihydro-2,4-benzo diazepine-3-one]: in the series on C57BL/6j mice, the “Ratio of sedation ED50 to PDP efficacy ED50” value came out at 11.33. For the same compound, the ED50 at 45 min in series [1] worked out at 3.74 mg/kg. Further, in series [6], the “motor deterioration (DA mechanism of action)” value is reported as “no motor deterioration is observed”. Besides, the ED50 in series [2] was 0.33 mg/kg; in series [4], 0.06 mg/kg. Inhibition on hERG potassium channel was half-maximal at 260 nM (IC50). The results for the Ki on 5-HT2A receptor and on 5-HT2C receptor were 0.028 nM and 2.4 nM, respectively. Moreover, the 2C/2A at 5-HT2A receptor is reported as 86.327.
